Legend:
5637 = test: ATPlite cell IC50 screening, 5637; type: cell-based; settings: 5637, Bladder carcinoma; ATPlite luminescence
Method: (§1) In brief, the cells were cultures in relevant medium and treated with a range of 9 doses of 2-deoxyribitol, from 10 mM, 5 mM, 2.5 mM, 1.25 mM, 0.62 mM, 0.31 mM, 0.08 mM, and 0.04 mM. Cells were diluted in the corresponding ATCC recommended medium and dispensed in a 384-well plate, depending on the cell line used, at a density of 100-6400 cells per well in 45 μl medium. For each used cell line the optimal cell density was used. The margins of the plate were filled with phosphate-buffered saline. Plated cells were incubated in a humidified atmosphere of 5% CO2 at 37° C. After 24 hours, 5 μl of compound dilution was added and plates were further incubated. At the end of experiment (t=end), 24 μl of ATPlite 1Step™ (PerkinElmer) solution was added to each well, and subsequently shaken for 2 minutes. After 10 minutes of incubation in the dark, the luminescence was recorded on an Envision multimode reader (PerkinElmer). IC50 was determined in comparison with the control samples. The cell lines tested and their corresponding disease model is indicated the left-most and middle columns, respectively. IC50 values are given in μM values in the right-most column. This screening was performed of a list of cancer cells to establish IC50 values for each of the cancer cell lines. This screening provides evidence for the potential of 2DR to treat many cancer types.

A-498 = test: ATPlite cell IC50 screening, A-498; type: cell-based; settings: Homo sapiens, A498; A-498, Renal cell carcinoma; ATPlite luminescence
Method: as §1

A-549 = test: ATPlite cell IC50 screening, A-549; type: cell-based; settings: Homo sapiens, A549; A-549, Lung adenocarcinoma; ATPlite luminescence
Method: as §1

ACHN = test: ATPlite cell IC50 screening, ACHN; type: cell-based; settings: Homo sapiens, Papillary renal cell carcinoma, ATPlite luminescence
Method: as §1

BT-549 = test: ATPlite cell IC50 screening, BT-549; type: cell-based; settings: Homo sapiens; BT-549, Invasive ductal carcinoma; ATPlite luminescence
Method: as §1

COLO 205 = test: ATPlite cell IC50 screening, COLO 205; type: cell-based; settings: Homo sapiens; COLO 205, Colon adenocarcinoma; ATPlite luminescence
Method: as §1

COLO 829 = test: ATPlite cell IC50 screening, COLO 829; type: cell-based; settings: Homo sapiens; COLO 829, Cutaneous melanoma; ATPlite luminescence
Method: as §1

Daoy = test: ATPlite cell IC50 screening, Daoy; type: cell-based; settings: Homo sapiens, Medulloblastoma, ATPlite luminescence
Method: as §1

G-361 = test: ATPlite cell IC50 screening, G-361; type: cell-based; settings: Homo sapiens; G-361, Melanoma; ATPlite luminescence
Method: as §1

HL-60 = test: ATPlite cell IC50 screening, HL-60; type: cell-based; settings: Homo sapiens; HL-60, Adult acute myeloid leukemia; ATPlite luminescence
Method: as §1

HT-1080 = test: ATPlite cell IC50 screening, HT-1080; type: cell-based; settings: Homo sapiens; HT-1080, Fibrosarcoma; ATPlite luminescence
Method: as §1

HuTu 80 = test: ATPlite cell IC50 screening, HuTu 80; type: cell-based; settings: Homo sapiens, HuTu80; HuTu 80, Duodenal adenocarcinoma; ATPlite luminescence
Method: as §1

Jurkat E6.1 = test: ATPlite cell IC50 screening, Jurkat E6.1; type: cell-based; settings: Homo sapiens; Jurkat E6.1, Childhood T acute lymphoblastic leukemia; ATPlite luminescence
Method: as §1

KU812 = test: ATPlite cell IC50 screening, KU812; type: cell-based; settings: Homo sapiens; KU812, Chronic myelogenous leukemia; ATPlite luminescence
Method: as §1

LS411N = test: ATPlite cell IC50 screening, LS411N; type: cell-based; settings: Homo sapiens, LS-411N, Cecum adenocarcinoma, ATPlite luminescence
Method: as §1

MG-63 = test: ATPlite cell IC50 screening, MG-63; type: cell-based; settings: Homo sapiens; MG-63, Osteosarcoma; ATPlite luminescence
Method: as §1

RL95-2 = test: ATPlite cell IC50 screening, RL95-2; type: cell-based; settings: Homo sapiens; RL95-2, Endometrial adenosquamous carcinoma; ATPlite luminescence
Method: as §1

RS4-11 = test: ATPlite cell IC50 screening, RS4-11; type: cell-based; settings: Homo sapiens; RS4-11, Adult B acute lymphoblastic leukemia; ATPlite luminescence
Method: as §1

SU-DHL-6 = test: ATPlite cell IC50 screening, SU-DHL-6; type: cell-based; settings: Homo sapiens; SU-DHL-6, Diffuse large B-cell lymphoma; ATPlite luminescence
Method: as §1

SW837 = test: ATPlite cell IC50 screening, SW837; type: cell-based; settings: Homo sapiens; SW837, Rectal adenocarcinoma; ATPlite luminescence
Method: as §1

VA-ES-BJ = test: ATPlite cell IC50 screening, VA-ES-BJ; type: cell-based; settings: Epithelioid sarcoma, ATPlite luminescence
Method: as §1

[1] = system: MDA231 cells (triple negative breast cancer cell); test: MDA231 cell growth; type: cell-based
Method: However, this effect was not related to the enhanced expression of glycosylation of α-DG.
(§2) Less than 50% of cells and 10% of cells were detected with the treatment of 10 mM and 50 mM 2-deoxyribitol, respectively.

breast cancer T47D cells = test: T47D cell growth; type: cell-based
Method: as §2

[2] = system: alpha dystroglycan (α-DG); test: Glycosylation of alpha dystroglycan; type: cell-based
Text: This invention applies a synthetic molecule, 2-deoxyribitol, to treat cancer for growth inhibition and cancer cell killing. Naturally-occurring ribitol is a metabolite, but its metabolic pathway has not been clearly defined. Recently, ribitol has been identified as a precursor of CDP-ribitol, the substrate used for the synthesis of sugar modification of a membrane protein, alpha dystroglycan (α-DG). […] The loss or reduced expression of glycosylation of α-DG has been linked to cancer progression and metastasis in breast and other cancers in clinics, and enhanced glycosylation of α-DG may inhibit cancer cell growth and tumorigenicity. This study screened several different pentose and pentitol molecules including ribose, 2-deoxyribose, ribulose, 2-deoxyribitol, xylose, and xylitol to evaluate these sugar molecules for the effects of enhancing glycosylation of α-DG and inhibiting cancer cell growth/tumorigenicity.

Storage stability = type: physicochemical; settings: 4 degrees Celsius, highly stable
Text: It can be delivered by direct application to local areas, given orally or through vasculature system. 2-deoxyribitol can also be delivered before, at the same time, or after the use of other drugs. 2-deoxyribitol can be applied as treatment for cancers before, at the same time, or after any other treatment procedure(s). In addition, the effect of 2-deoxyribitol on three tissue types of cancers indicate that it can be applied for many other epithelial cancers.

For OCC[C@H](O)[C@H](O)CO [2-deoxyribitol], the IC50 5637 was 9.33 mM, the IC50 (A-498) was 8.73 mM and the IC50 (A-549) was 9.97 mM. For the same molecule, the IC50 (ACHN) was 3.14 mM, the IC50 (BT-549) was 4.27 mM and the IC50 (COLO 205) was 4.54 mM. The IC50 (COLO 829) was 6.37 mM, the IC50 (Daoy) was 6.24 mM and the IC50 (G-361) was > 10 mM. For the same molecule, the IC50 (HL-60) was 7.46 mM, the IC50 (HT-1080) was 4.39 mM and the IC50 (HuTu 80) was 4.92 mM. The IC50 (Jurkat E6.1) was 4.65 mM, the IC50 (KU812) was 4.3 mM and the IC50 (LS411N) was 6.97 mM. The IC50 (MG-63) was 9.27 mM, the IC50 (RL95-2) was 6.42 mM and the IC50 (RS4-11) was 3.06 mM. The IC50 (SU-DHL-6) was 4.06 mM, the IC50 (SW837) was 9.79 mM and the IC50 (VA-ES-BJ) was 5.28 mM. For the same molecule, the “inhibitory effect as seen in MCF7 (growth / anchorage independent growth)” value ([1]; MDA231, concentrations lower than 10 mM) was “clearly demonstrated”, the inhibiting cell growth ([1]; MDA231 cells) was “had an effect on inhibiting cell growth” and the inhibiting cell growth (breast cancer T47D cells) was “had an effect on inhibiting cell growth”. The “glycosylation of α-DG” value [2] was “did not enhance glycosylation of α-DG” and the stability on storage (Storage stability) was “at least 6 months”.

— US12257214B2, “Compositions and methods comprising deoxy-pentitols” (The Charlotte Mecklenburg Hospital Authority, priority 2021, dated 2025)
